Results taken from article PMC4569708, “Synergistic activation of human pregnane X receptor by binary cocktails of pharmaceutical and environmental compounds” (Nature Communications, 2015).

T1: PXR (Homo sapiens, UniProt O75469)
T1 sequence (O75469 107-434): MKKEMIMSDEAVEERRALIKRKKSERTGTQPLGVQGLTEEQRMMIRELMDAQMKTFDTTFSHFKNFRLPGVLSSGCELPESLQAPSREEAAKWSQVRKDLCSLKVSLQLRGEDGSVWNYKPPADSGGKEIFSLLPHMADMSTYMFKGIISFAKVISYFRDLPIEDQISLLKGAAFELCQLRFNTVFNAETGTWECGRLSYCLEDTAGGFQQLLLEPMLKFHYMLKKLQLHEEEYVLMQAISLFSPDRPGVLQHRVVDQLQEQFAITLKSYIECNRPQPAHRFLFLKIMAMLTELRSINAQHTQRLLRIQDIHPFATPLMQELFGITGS

T2: PXR LBD (Homo sapiens, UniProt O75469)
T2 construct: Purified PXR(130-434)-SRC-1 was dialysed overnight; His6 (N); made in house; host or cells: E. coli BL21(DE3)
T2 sequence (O75469 with tags, fused parts or gaps limits assumed): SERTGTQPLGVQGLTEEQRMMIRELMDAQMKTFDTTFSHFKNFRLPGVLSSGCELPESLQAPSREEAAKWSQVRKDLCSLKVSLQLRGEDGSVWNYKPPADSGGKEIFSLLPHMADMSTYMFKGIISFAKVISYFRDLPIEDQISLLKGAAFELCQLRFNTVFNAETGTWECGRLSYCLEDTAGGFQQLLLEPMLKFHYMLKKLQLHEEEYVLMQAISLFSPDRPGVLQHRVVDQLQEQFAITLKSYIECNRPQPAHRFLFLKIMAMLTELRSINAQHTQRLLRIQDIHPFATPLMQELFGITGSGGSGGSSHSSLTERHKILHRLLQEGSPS

T3: fluorescein-labelled NR interaction domain (NID) of SRC-1 (residues 570-780) (UniProt Q15788 570-780, fluorescein at the C-terminus (cys-fluor added on intein cleavage))
T3 chain: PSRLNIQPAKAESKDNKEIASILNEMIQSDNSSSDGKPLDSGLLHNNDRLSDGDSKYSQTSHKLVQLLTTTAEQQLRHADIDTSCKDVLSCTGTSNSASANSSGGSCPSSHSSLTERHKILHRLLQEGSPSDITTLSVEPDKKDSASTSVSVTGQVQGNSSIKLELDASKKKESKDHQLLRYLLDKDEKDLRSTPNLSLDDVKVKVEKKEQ


Legend:
[1] = target: T1, PXR; assay: Medium-throughput screening, HG5LN GAL4-PXR-LBD reporter cell line (HeLa); settings: HG5LN GAL4-PXR reporter cells; 3 µM SR12813 = 100% activation; determined prior to the screening
From the text: Using medium-throughput ligand screening and a mammalian (HeLa) cell-based activation assay (HG5LN GAL4-PXR-LBD reporter cell line)[14][15], we monitored the agonistic potential of 40 chemicals either alone or in binary mixtures (Supplementary Table 1). […] We next examined the effect of TNC, EE2, and their combination in human liver (HepG2) and colon (LS174T) carcinoma cell lines containing the full-length PXR and the CYP3A4-XREM luciferase reporter plasmids.
LS174T stable human PXR transfectant (LS-PXR2) and the corresponding control cells (LS-CTRL), HEPG2-PXR and HG5LN GAL4-PXR reporter cell lines were previously described. […] HEPG2-PXR was obtained after stable transfection of the same PXR expressing plasmid and the XREM-CYP3A4 pGL3b reporter plasmid. […] Finally, LS174T-PXR reporter cell line was established by stable transfection of the CYP3A4-luciferase-hygromycine plasmid in the LS-PXR2 cell line. All cell lines were grown in DMEM medium (Invitrogen) supplemented with 10% fetal calf serum, L-glutamine, and antibiotics (Invitrogen).
HG5LN GAL4-PXR reporter cell lines (100 μl) were seeded at a density of 25,000 cells per well in 96-well white opaque tissue culture plates (Greiner CellStar). […] Then the ligand to be tested in combination with the different ligands was added (50 μl). Cells were incubated at 37 °C for 16 h. At the end of the incubation period, culture medium was replaced with medium containing 3.10^−4 M luciferin. Luciferase activity was measured for 2 s in intact living cells using a plate reader (PerkinElmer Luminometer).
Supplementary Table 1 | Compounds used for screening
#For each ligand, the concentration used was determined prior to the screening experiment. It represents the dose at which the
synthetized in the laboratory4. **Compounds purchased from Tocris Biosciences. ***Compounds purchased by Sigma
Aldrich.****Gift from Sanofi Aventis. All compound stock solutions were prepared at 10 mM in DMSO.

[2] = target: T1, PXR; assay: Transactivation assay (dose-response), HG5LN GAL4-PXR-LBD reporter cells; settings: summary of cell-based assays
Protocol: Compounds to be tested were added 24 h later, and cells were incubated at 37 °C for 16 h. […] EC50 values were measured using GraphPad Prism (GraphPad Software Inc.).

[3] = target: T2, PXR LBD; assay: Non-denaturing ESI-MS of ligand binding
Protocol: Figure 4 Simultaneous binding of EE2 and TNC to PXR. Mass spectrometry analysis. Non-denaturing ESI-MS was used to characterize PXR LBD (10 μM) in (a) the unliganded form or in the presence of (b) EE2 (20 μM), (c) TNC (20 μM), or (d) a mixture of EE2 (20 μM) and TNC (20 μM). *, acetate adducts; $, fortuitous binders 254-324 Da; , fortuitous binder 254 Da; #, non-specific EE2 adducts. TEXT PRINTED IN THE PICTURE: (b) no label printed: 296.4 Da | (c) no label printed: 444.2 Da | (d) no label printed: 740.6 Da DOUBTS OF THE COPYIST ABOUT THIS PICTURE: Panels b, c and d: the drawn structures have no label of their own. The masses in brackets are printed with no measure word and are taken as molecular masses. / Panel d: 740.6 Da is printed under two drawn structures joined by '+', so it belongs to the pair, not to a single substance. / The peak labels of the mass spectra were left out as spectrum annotations of the protein and its complexes: PXR 38,212.5 Da, Theoretical mass 38,217.7 Da, Δ 297 Da, Δ 445 Da and Δ 740 Da.
Mass spectrometry experiments were carried out on an electrospray time-of-flight mass spectrometer (LCT, Waters) equipped with an automated chip-based nanoESI device (Triversa Nanomate, Advion Biosciences). External calibration was done in the positive ion mode over the mass range m/z 500–5,000 using the multiply charged ions produced by 0.5 μM horse heart myoglobin solution diluted in water/acetonitrile 50/50 mixture acidified with 0.5% (v/v) formic acid. Purified PXR(130-434)-SRC1 was buffer exchanged against 50 mM ammonium acetate (NH4Ac), pH 8.0 using NAP5 desalting columns (illustra NAP-5 Columns, GE Healthcare Life Sciences). Protein concentration was determined spectrophotometrically (ɛ280 nm=26,210 l mol^−1 cm^−1). […] Protein concentration was set to 10 μM and different compound concentrations ranging from 20 to 80 μM were tested. Incubations lasted 5 min at 18 °C. Mass spectra were recorded using low cone voltage (Vc, 20 V) and elevated interface pressure (Pi, 5 mbar).

[4] = target: T3, fluorescein-labelled NR interaction …; assay: FP; TNC
[5] = target: T3, fluorescein-labelled NR interaction …; assay: FP; TNC+EE2
[6] = target: T3, fluorescein-labelled NR interaction …; assay: FP; apo (no ligand)
[7] = target: T3, fluorescein-labelled NR interaction …; assay: FP; SR12813
[8] = target: T3, fluorescein-labelled NR interaction …; assay: FP; EE2

Molecule	Concentration: dose at which the compound alone induces ≈30% of the luciferase expression obtained with 3 µM SR12813 [1]	other results
Clc1ccc(C(c2ccccc2Cl)C(Cl)(Cl)Cl)cc1 (stereo not shown) [2,4’DDT]	3000 nM	
Clc1ccc(C(c2ccc(Cl)cc2)C(Cl)(Cl)Cl)cc1 [4,4’DDT]	3000 nM	
Cc1ccc(/C=C2/C(=O)C3(C)CCC2C3(C)C)cc1 (stereo not shown) [4-methylbenzylidene camphor]	1000 nM	
Cc1cc(C(C)(C)C)ccc1O [4-tert-butyl-2-methylphenol]	1000 nM	
CCCCOC(=O)c1ccccc1C(=O)OCc1ccccc1 [Benzyl butyl phthalate]	1000 nM	
Clc1ccccc1C(c1ccccc1)(c1ccccc1)n1ccnc1 [Clotrimazol, reference compound]	300 nM	
CC1(C)C(C=C(Cl)Cl)C1C(=O)OC(C#N)c1cccc(Oc2ccccc2)c1 (stereo not shown) [Cypermethrine]	3000 nM	
C#C[C@]1(O)CC[C@H]2[C@@H]3CCc4cc(O)ccc4[C@H]3CC[C@@]21C [EE2, 17α-ethinylestradiol, reference compound]		PXR agonism, cell-based assays as a whole [2]: poor PXR agonists; Complex detected ([3]; PXR 10 μM, 2 molar equivalent excess of compound (20 μM)): ~70%; Range of affinity for PXR ([3]; native ESI-MS): low micromolar range
N#Cc1nn(-c2c(Cl)cc(C(F)(F)F)cc2Cl)c(N)c1S(=O)(=O)C(F)(F)F [Fipronil sulfone]	3000 nM	
CO[C@H]1/C=C/O[C@@]2(C)Oc3c(C)c(O)c4c(O)c(c(/C=N/N5CCN(C)CC5)c(O)c4c3C2=O)NC(=O)/C(C)=C\C=C\[C@H](C)[C@H](O)[C@@H](C)[C@@H](O)[C@@H](C)[C@H](OC(C)=O)[C@@H]1C [Rifampicin, reference compound]	300 nM	
CC(=O)O[C@H]1C(=O)[C@@]2(C)[C@H]([C@H](OC(=O)c3ccccc3)[C@]3(O)C[C@H](OC(=O)[C@H](O)[C@@H](NC(=O)c4ccccc4)c4ccccc4)C(C)=C1C3(C)C)[C@]1(OC(C)=O)CO[C@@H]1C[C@@H]2O [TAXOL, reference compound]	30 nM	
Clc1cnc(Oc2ccc(Oc3ncc(Cl)cc3Cl)cc2)c(Cl)c1 [TCPOBOP, reference compound]	1000 nM	
C[C@H]1CCCC(=O)CCC/C=C/c2cc(O)cc(O)c2C(=O)O1 [Zearalenone]	1000 nM	
-zearalanol	1000 nM	
-zearalenol	300 nM	
PXR/RXR LBD heterodimer (complex) chain 1: SERTGTQPLGVQGLTEEQRMMIRELMDAQMKTFDTTFSHFKNFRLPGVLSSGCELPESLQAPSREEAAKWSQVRKDLCSLKVSLQLRGEDGSVWNYKPPADSGGKEIFSLLPHMADMSTYMFKGIISFAKVISYFRDLPIEDQISLLKGAAFELCQLRFNTVFNAETGTWECGRLSYCLEDTAGGFQQLLLEPMLKFHYMLKKLQLHEEEYVLMQAISLFSPDRPGVLQHRVVDQLQEQFAITLKSYIECNRPQPAHRFLFLKIMAMLTELRSINAQHTQRLLRIQDIHPFATPLMQELFGITGS chain 2: TSSANEDMPVERILEAELAVEPKTETYVEANMGLNPSSPNDPVTNICQAADKQLFTLVEWAKRIPHFSELPLDDQVILLRAGWNELLIASFSHRSIAVKDGILLATGLHVHRNSAHSAGVGAIFDRVLTELVSKMRDMQMDKTELGCLRAIVLFNPDSKGLSNPAEVEALREKVYASLEAYCKHKYPEQPGRFAKLLLRLPALRSIGLKCLEHLFFFKLIGDTPIDTFLMEMLEAPHQMT		Kd [4]: 450 nM; Kd [5]: 84.5 nM; Kd [6]: 368 nM; Kd [7]: 93 nM; Kd [8]: 272 nM
